Our source for the inhibition values is US8541573B2, “Substituted sulfonamide compounds” (Gruenenthal GmbH, priority 2008, dated 2013).

One assay deals with T1, human B1R (Homo sapiens, UniProt P46663).
T1 construct: expressed in transfected cells; host or cells: CHO K1 cells
T1 sequence (P46663 1-353): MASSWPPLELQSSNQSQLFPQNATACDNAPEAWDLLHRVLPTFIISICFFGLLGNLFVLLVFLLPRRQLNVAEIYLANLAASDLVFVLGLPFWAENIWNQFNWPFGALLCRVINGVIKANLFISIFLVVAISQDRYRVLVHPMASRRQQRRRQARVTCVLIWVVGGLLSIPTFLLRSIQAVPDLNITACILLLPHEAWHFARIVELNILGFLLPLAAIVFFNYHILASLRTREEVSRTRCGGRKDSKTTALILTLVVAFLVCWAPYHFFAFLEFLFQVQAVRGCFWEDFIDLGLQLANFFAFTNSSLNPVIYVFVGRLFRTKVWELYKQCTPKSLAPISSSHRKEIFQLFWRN
Description: Functional investigation on the bradykinin 1 receptor (B1R), cell-based fluorescent calcium-mobilization assay (FLIPR/Novostar), human. To be noted: 10 μM test substance; CHO K1 cells stably transfected with human B1R gene; agonist Lys-Des-Arg9-bradykinin at EC80; % inhibition compared with maximum achievable inhibition; read-out: B1R antagonism, human [10 μM] % inhibition. The protocol:
(§1) The agonistic or antagonistic action of substances can be quantified on the bradykinin 1 receptor (B1R) of the human and rat species with ectopically expressing cell lines (CHO K1 cells) and with the aid of a Ca^2+-sensitive dyestuff (Fluo-4) in a fluorescent imaging plate reader (FLIPR). The figure in % activation is based on the Ca^2+ signal after addition of Lys-Des-Arg^9-bradykinin (0.5 nM) or Des-Arg^9-bradykinin (100 nM). Antagonists lead to a suppression of the Ca^2+ inflow after addition of the agonist. % inhibition compared with the maximum achievable inhibition is stated.
(§2) The agonistic or antagonistic action of substances can be determined on the bradykinin 1 receptor (B1R) of humans and rats by means of a cell-based flourescent calcium-mobilization assay. According to this assay agonist-induced increase of intracellular free Ca^2+ is quantified by means of a Ca^2+-sensitive dye (Fluo-4 type, Molecular Probes Europe BV, Leiden, Netherlands), in a Fluorescent Imaging Plate Reader (FLIPR, Molecular Devices, Sunnyvale, USA) and/or the Novostar (BMG Labtech GmbH, Offenburg, Germany).
(§3) Chinese hamster ovary cells (CHO K1 cells), which are stably transfected with the human B1R gene (hB1R cells) or with the B1R gene of rats (rB1R cells), are used. For functional investigations these cells are seeded into black 96-well plates with a clear bottom (BD Biosciences, Heidelberg, Germany or Greiner, Frickenhausen, Germany) in a density of 20,000-35,000 cells/well. The cells are incubated overnight in a humidified atmosphere at 37° C. and 5% CO2 in culture medium (hB1R cells: Nutrient Mixture Ham's F12, Gibco Invitrogen GmbH, Karlsruhe, Germany or DMEM, Sigma-Aldrich, Taufkirchen, Germany; rB1R cells: D-MEM/F12, Gibco Invitrogen GmbH, Karlsruhe, Germany) with 10 vol. % FBS (foetal bovine serum, Gibco Invitrogen GmbH, Karlsruhe, Germany).
(§4) On the following day the cells are loaded with the Ca^2+-sensitive dye Fluo-4-AM (Molecular Probes Europe BV, Leiden, Netherlands):
(§5) Method A: The medium of the cells is removed and cell plates are incubated with loading solution, which contains 2.13 μM Fluo-4-AM, 2.5 mM probenecid (Sigma-Aldrich, Taufkirchen, Germany), and 10 mM HEPES (Sigma-Aldrich, Taufkirchen, Germany) in HBSS buffer (Hank's buffered saline solution, Gibco Invitrogen GmbH, Karlsruhe, Germany) for 60 minutes at 37° C. After the plates are washed twice with HBSS buffer, HBSS buffer supplemented 0.1% BSA (bovine serum albumin; Sigma-Aldrich, Taufkirchen, Germany), 5.6 mM glucose and 0.05% gelatine (Merck KGaA, Darmstadt, Germany) is added. Cell plates are incubated for at least 20 minutes in the dark at room temperature before they are used for the Ca^2+ measurement in the FLIPR or Novostar.
(§6) Method B: The plates are washed with buffer A (15 mM HEPES, 80 mM NaCl, 5 mM KCl, 1.2 mM CaCl2, 0.7 mM MgSO4, 2 mg/ml glucose, 2.5 mM probenecid) and subsequently loaded with buffer A containing 2.4 μM Fluo-4-AM and 0.025% pluronic F127 (Sigma-Aldrich, Taufkirchen, Germany) for 60 minutes at 37° C. Cell plates are washed twice with buffer A. Then, buffer A supplemented with 0.05% BSA and 0.05% gelatine is added and cell plates are incubated in the dark at room temperature for at least 20 minutes before measurement in the FLIPR or Novostar is started.
(§7) The Ca^2+-dependent fluorescence is measured both before and after the addition of substances (λex=488 nm, λem=540 nm). For quantification of the effect the highest fluorescence intensity (FC, fluorescence counts) over time is given. The FLIPR protocol consists of two substance additions, done within the instrument while continuously monitoring the Ca^2+-dependent fluorescence at 540 nm. When the Novostar was used, one addition had to be done outside the instrument. Test substances (10 μM) are initially pipetted onto the cells and the intracellular Ca^2+ rise is compared with the control (hB1R: Lys-Des-Arg9-bradykinin>=50 nM; rB1R: Des-Arg9-bradykinin>=1 μM). […]

A further assay has as its target T2, B1R of rats (Rattus norvegicus, UniProt P97583).
T2 construct: expressed in transfected cells; host or cells: CHO K1 cells
T2 sequence (P97583 1-337): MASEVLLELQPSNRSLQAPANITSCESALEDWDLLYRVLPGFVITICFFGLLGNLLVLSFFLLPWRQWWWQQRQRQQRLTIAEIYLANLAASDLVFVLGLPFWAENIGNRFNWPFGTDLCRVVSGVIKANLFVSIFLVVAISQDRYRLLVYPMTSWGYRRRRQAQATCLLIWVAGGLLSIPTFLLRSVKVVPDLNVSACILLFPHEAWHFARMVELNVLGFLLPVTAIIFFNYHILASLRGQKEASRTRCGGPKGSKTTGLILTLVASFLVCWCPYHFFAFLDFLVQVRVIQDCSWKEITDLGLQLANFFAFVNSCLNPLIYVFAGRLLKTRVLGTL
Description: Functional investigation on the bradykinin 1 receptor (B1R), cell-based fluorescent calcium-mobilization assay (FLIPR/Novostar), rat. To be noted: 10 μM test substance; CHO K1 cells stably transfected with rat B1R gene; agonist Des-Arg9-bradykinin at EC80; % inhibition compared with maximum achievable inhibition; read-out: B1R antagonism, rat [10 μM] % inhibition. The protocol:
as §1, §2, §3, §4, §5, §6, §7

By inhibition is commonly meant the drop in the measured response relative to a control, in per cent.

With `COc1cc(C)c(S(=O)(=O)N(C)CCOCC(=O)N2CCC(CNC(=O)c3ccncc3)(N3CCN(C)CC3)CC2)c(C)c1` [Example 1, N-((1-(2-(2-(4-methoxy-N,2,6-trimethylphenylsulfonamido)ethoxy)acetyl)-4-(4-methylpiperazin-1-yl)piperidin-4-yl)methyl)isonicotinamide], the inhibition at 10 µM at human B1R was found to be 107%; on B1R of rats, 101%.
The like results for `COc1cc(C)c(S(=O)(=O)N(CCOCC(=O)N2CCC(CNC(C)=O)(N3CCN(c4ccncc4)CC3)CC2)C2CC2)c(C)c1` [Example 46, N-((1-(2-(2-(N-Cyclopropyl-4-methoxy-2,6-dimethylphenylsulfonamido)ethoxy)acetyl)-4-(4-(pyridin-4-yl)piperazin-1-yl)piperidin-4-yl)methyl)acetamide] were, in that order, 100% and 101%.
The like results for `CN1CCN(C2(CNC(=O)c3ccccc3)CCN(C(=O)CC(NS(=O)(=O)c3ccc4ccccc4c3)c3ccccc3)CC2)CC1` (centres unmarked) [Example 16, N-((4-(4-methylpiperazin-1-yl)-1-(3-(naphthalene-2-sulfonamido)-3-phenylpropanoyl)piperidin-4-yl)methyl)benzamide] were, in that order, 94% and 31%.
For `CN1CCN(C2(CNC(=O)c3ccccc3)CCN(C(=O)COCC3CCc4ccccc4N3S(=O)(=O)c3ccc(Cl)c(Cl)c3)CC2)CC1` (centres unmarked) [Example 23, N-((1-(2-((1-(3,4-dichlorophenylsulfonyl)-1,2,3,4-tetrahydroquinolin-2-yl)methoxy)acetyl)-4-(4-methylpiperazin-1-yl)piperidin-4-yl)methyl)benzamide], the inhibition at 10 µM on human B1R came out at 99%; on B1R of rats it was 54%.
For `COc1cc(C)c(S(=O)(=O)N(C)CCOCC(=O)N2CCC(CNC(=O)c3ccccc3)(N3CCN(C)CC3)CC2)c(C)c1` [Example 24, N-((1-(2-(2-(4-methoxy-N,2,6-trimethylphenylsulfonamido)ethoxy)acetyl)-4-(4-methylpiperazin-1-yl)piperidin-4-yl)methyl)benzamide] the same measures were 103% and 101%.
Take `Cc1cc(S(=O)(=O)N2CCCCC2CCC(=O)N2CCC(CNC(=O)c3ccncc3)(N3CCN(C)CC3)CC2)c(C)cc1Cl` (centres unmarked) [Example 26, N-((1-(3-(1-(4-chloro-2,5-dimethylphenylsulfonyl)piperidin-2-yl)propanoyl)-4-(4-methylpiperazin-1-yl)piperidin-4-yl)methyl)isonicotinamide]: the inhibition at 10 µM at human B1R turned out to be 103%; at B1R of rats, 45%.
For `COc1cc(C)c(S(=O)(=O)N2CCCCC2COCC(=O)N2CCC(CNC(=O)Cc3ccccc3)(N3CCN(C)CC3)CC2)c(C)c1` (centres unmarked) [Example 3, N-((1-(2-((1-(4-methoxy-2,6-dimethylphenylsulfonyl)piperidin-2-yl)methoxy)acetyl)-4-(4-methylpiperazin-1-yl)piperidin-4-yl)methyl)-2-phenylacetamide] the same measures were 103% and 104%.
The like results for `CC(=O)NCC1(N2CCN(C)CC2)CCN(C(=O)CCC2CCCCN2S(=O)(=O)c2cc(C)c(Cl)cc2C)CC1` (centres unmarked) [Example 2, N-((1-(3-(1-(4-chloro-2,5-dimethylphenylsulfonyl)piperidin-2-yl)propanoyl)-4-(4-methylpiperazin-1-yl)piperidin-4-yl)methyl)acetamide] were, in that order, 81% and 74%.
In the case of `COc1cc(C)c(S(=O)(=O)N(C)CCOCC(=O)N2CCC(CNC(=O)c3ccccn3)(N3CCN(C)CC3)CC2)c(C)c1` [Example 25, N-((1-(2-(2-(4-methoxy-N,2,6-trimethylphenylsulfonamido)ethoxy)acetyl)-4-(4-methylpiperazin-1-yl)piperidin-4-yl)methyl)picolinamide], the values for the inhibition at 10 µM at human B1R and at B1R of rats were 103% and 101%, respectively.
The like results for `COc1cc(C)c(S(=O)(=O)N(C)CCOCC(=O)N2CCC(CNC(=O)c3cccnc3)(N3CCN(C)CC3)CC2)c(C)c1` [Example 32, N-((1-(2-(2-(4-methoxy-N,2,6-trimethylphenylsulfonamido)ethoxy)acetyl)-4-(4-methylpiperazin-1-yl)piperidin-4-yl)methyl)nicotinamide] were, in that order, 104% and 101%.
As to `COc1cc(C)c(S(=O)(=O)N2CCCCC2COCC(=O)N2CCC(CNC(C)=O)(N3CCN(c4ccncc4)CC3)CC2)c(C)c1` (centres unmarked) [Example 22, N-((1-(2-((1-(4-methoxy-2,6-dimethylphenylsulfonyl)piperidin-2-yl)methoxy)acetyl)-4-(4-(pyridin-4-yl)piperazin-1-yl)piperidin-4-yl)methyl)acetamide], the inhibition at 10 µM on human B1R is 103%; on B1R of rats, 101%.
For `Cc1cc(S(=O)(=O)N2CCCCC2CCC(=O)N2CCC(CNC(=O)c3cccnc3)(N3CCN(C)CC3)CC2)c(C)cc1Cl` (centres unmarked) [Example 33, N-((1-(3-(1-(4-chloro-2,5-dimethylphenylsulfonyl)piperidin-2-yl)propanoyl)-4-(4-methylpiperazin-1-yl)piperidin-4-yl)methyl)nicotinamide] the same measures were 103% and 100%.
On to `COc1cc(C)c(S(=O)(=O)N2CCCCC2CCOCC(=O)N2CCC(CNC(=O)c3ccncc3)(N3CCN(C)CC3)CC2)c(C)c1` (centres unmarked) [Example 53, N-((1-(2-(2-(1-(4-Methoxy-2,6-dimethylphenylsulfonyl)piperidin-2-yl)ethoxy)acetyl)-4-(4-methylpiperazin-1-yl)piperidin-4-yl)methyl)isonicotinamide], for which the inhibition at 10 µM at B1R of rats worked out at 102%.
`CN1CCN(C2(CNC(=O)c3ccncc3)CCN(C(=O)CCCN(C)S(=O)(=O)c3cccc(C(F)(F)F)c3)CC2)CC1` [Example 54, N-((1-(4-(N-Methyl-3-(trifluoromethyl)phenylsulfonamido)butanoyl)-4-(4-methylpiperazin-1-yl)piperidin-4-yl)methyl)isonicotinamide]: on B1R of rats, the inhibition at 10 µM was 66%.
